Data from patent publication US20060100259A1, “Process for the preparation of substituted triazole compounds” (priority 2004, published 2006).

SMILES	melting point
Nc1nc(Nc2ccc(S(N)(=O)=O)cc2)nn1C(=O)c1ccccc1Cl [Compound #2, N^3-[(4-aminosulfonyl)phenyl]-1-(2′-chlorobenzoyl)-1H-1,2,4-triazole-3,5-diamine]	237 to 242.5 °C
COc1ccccc1C(=O)n1nc(Nc2ccc(S(N)(=O)=O)cc2)nc1N [Compound #3, N^3-[(4-aminosulfonyl)phenyl]-1-(2′-methoxybenzoyl)-1H-1,2,4-triazole-3 5-diamine]	217 to 221.5 °C
Nc1nc(Nc2ccc(S(N)(=O)=O)cc2)nn1C(=O)c1ccccc1Br [Compound #4, N^3-[(4-aminosulfonyl)phenyl]-1-(2′-bromobenzoyl)-1H-1,2,4-triazole-3,5-diamine]	246 to 248 °C
Nc1nc(Nc2ccc(S(N)(=O)=O)cc2)nn1C(=O)c1cccc([N+](=O)[O-])c1 [Compound #5, N^3-[(4-aminosulfonyl)phenyl]-1-(3′-nitrobenzoyl)-1H-1,2,4-triazole-3,5-diamine]	260 to 262 °C
Nc1nc(Nc2ccc(S(N)(=O)=O)cc2)nn1C(=O)c1cccc(C(F)(F)F)c1 [Compound #6, N^3-[(4-aminosulfonyl)phenyl]-1-[3′-(trifluoromethyl)benzoyl]-1H-1,2,4-triazole-3,5-diamine]	251 to 253 °C
Nc1nc(Nc2ccc(S(N)(=O)=O)cc2)nn1C(=O)c1cccc(Br)c1 [Compound #7, N^3-[(4-aminosulfonyl)phenyl]-1-(3′-bromobenzoyl)-1H-1,2,4-triazole-3,5-diamine]	242 to 244 °C
Nc1nc(Nc2ccc(S(N)(=O)=O)cc2)nn1C(=O)c1ccc([N+](=O)[O-])cc1 [Compound #9, N^3-[(4-aminosulfonyl)phenyl]-1-(4′-nitrobenzoyl)-1H-1,2,4-triazole-3,5-diamine]	336 to 338 °C

Now from value to molecule:

melting point	SMILES
> 300 °C	Nc1nc(Nc2ccc(S(N)(=O)=O)cc2)nn1C(=O)c1ccc(O)cc1 [Compound #10, N^3-[(4-aminosulfonyl)phenyl]-1-(4′-hydroxybenzoyl)-1H-1,2,4-triazole-3,5-diamine]
244.5 to 247.5 °C	COc1ccc(C(=O)n2nc(Nc3ccc(S(N)(=O)=O)cc3)nc2N)cc1 [Compound #12, N^3-[(4-aminosulfonyl)phenyl]-1-(4′-methoxybenzoyl)-1H-1,2,4-triazole-3,5-diamine]
334 to 336 °C	CC(=O)n1nc(Nc2ccc(S(N)(=O)=O)cc2)nc1N [Compound #16, N^3-[(4-aminosulfonyl)phenyl]-1-acetyl-1H-1,2,4-triazole-3,5-diamine]
> 300 °C	Nc1nc(Nc2ccc(S(N)(=O)=O)cc2)nn1C(=O)c1ccco1 [Compound #17, N^3-[(4-aminosulfonyl)phenyl]-1-(2′-furoyl)-1H-1,2,4-triazole-3,5-diamine]
222.5 to 224 °C	Cc1ccc(C(=O)n2nc(Nc3ccccc3)nc2N)cc1 [Compound #25, N^3-phenyl-1-(4′-methylbenzoyl)-1,2,4-triazole-3,5-diamine]
> 260 °C	Nc1nc(Nc2ccc(S(N)(=O)=O)cc2)nn1C(=O)c1ccc(Cl)cc1 [Compound #28, N^3-[(4-aminosulfonyl)phenyl]-1-(4′-chlorobenzoyl)-1H-1,2,4-triazole-3,5-diamine]
89.5 to 94 °C	COc1ccccc1C(=O)n1nc(Nc2ccccc2)nc1N [Compound #29, N^3-phenyl-1-(2′methoxybenzoyl)-1,2,4-triazole-3,5-diamine]
174 to 184 °C	COc1cccc(C(=O)n2nc(Nc3ccccc3)nc2N)c1 [Compound #30, N^3-phenyl-1-(3′-methoxybenzoyl)-1,2,4-triazole-3,5-diamine]
201 to 202 °C	Nc1nc(Nc2ccccc2)nn1C(=O)c1ccco1 [Compound #31, N^3-phenyl-1-(2-furoyl)-1,2,4-triazole-3,5-diamine]
